From US9283242B2, “Uses of dihydro bases” (priority 2013, dated 2016)
Entries after “also recorded” stand apart in the source; their conditions may differ.

Columns and labels:
[1] = Variable temperature 1H NMR, tautomerism in DMF-d7; format: physicochemical; conditions: DMF-d7, 20 to −60° C.
Description: At 20° C., exchangeable protons on the base moiety are observed at 7.58 ppm and 4.14 ppm (FIG. 10). At −60° C., exchangeable protons on the base moiety are observed at 8.70 ppm, 8.08 ppm, and 4.68 ppm (FIG. 11). Protons with a chemical shift of 8.70, 8.08, and 7.58 ppm likely correspond to enolic, amido, or imino protons, while protons with a chemical shift of 4.68 and 4.14 ppm likely correspond to amino protons. The expected chemical shifts for enolic, amido, and imino protons are relatively close, and thus these species cannot be assigned at this stage. […] Only the existence of multiple tautomeric species would explain the presence of three exchangeable protons resonances. […] Based on their chemical structures, the keto-amino tautomer will pair with guanine and the keto-imino/enol-imino tautomers can pair with adenine.
All NMR experiments were performed on Varian 500 MHz NMR spectrometers. The deuterated solvent DMF-d7 was from Cambridge Isotope Laboratories, Andover, Mass., USA. 5-Aza-5,6-dihydro-2′-deoxycytidine (KP1212) nucleoside was from Berry & Associates Inc., Dexter, Mich., USA. The NMR sample was prepared by dissolving 10 mg of KP1212 nucleoside in 1.0 ml DMF-d7 (final concentration ˜44 mM). ^1H NMR spectra were reported in parts per million (ppm) and were referenced to the signals for DMF-d7 (8.03 ppm). ^13C NMR spectra were referenced to the signals for DMF-d7 (163.15 ppm).
FIG. 14A depicts the structures of all five possible tautomers (1 to 5) of KP1212, among which the three active protons on the nucleobase shift among the 02, N3, N4 and N5 positions. […] Before assigning the three active protons on the nucleobase moiety, all non-exchangeable protons in KP1212 and the two hydroxyl protons on the 3′ and 5′ positions were identified by carrying out 1D (^1H and ^13C) and 2D (COSY, HSQC, and HMBC) NMR experiments. The NMR signals of the three active protons in the base portion of KP1212 were studied at different temperatures. […] When the temperature was decreased to −50° C., the three broad peaks resolved into six distinct proton resonances (FIG. 14B, denoted as peaks i-vi), which could be assigned to imino (designated as e and n in FIGS. 14A to 14C), amido (designated as g and m), enolic (designated as c and d) or amino (designated as a, b, f, h, i, j, k, l, and o) protons.
At −50° C. six distinct proton resonances (FIG. 14B, i to vi) were observed, attributable to protons bound either to nitrogen or to oxygen atom (for only the base portion of the KP1212 molecule). Integration of the six broad peaks permitted estimation of the relative ratios of the five tautomeric species that exist in solution (FIG. 14A).
The NMR data also allowed the determination of the relative ratios of the tautomeric species present in the DMF solution at −50° C. (FIGS. 14B and 14C). Several peaks in the NMR spectrum partially overlapped (e.g., iv and v), so the raw data were reconstructed using a least squares fit algorithm (FIG. 16). The reconstructed peaks from the simulation were integrated, yielding an estimate of the relative amounts of each of the proton resonances in the spectrum. […] 2) Based on the peak assignments from part 1), a system of linear equations was set up using the relative amounts of tautomers as unknown variables (FIG. 14D). Each NMR peak provided a linear equation whereby the peak area should be equal to the sum of all tautomers (as relative amounts) containing protons that contribute to that peak. The solutions of these equations yielded the relative ratios of the tautomeric species present in DMF at −50° C. (FIG. 14D).

[2] = tested on: HK82-SOS; assay: REAP mutagenesis assay, HK82-SOS cells; format: cell-based, E. coli; conditions: (b) HK82-SOS
Description: (§1) All E. coli strains used in this work contain the F′ episome, which enables infection by M13 phage. GW5100 strain was used for large scale preparation of M13 phage DNA, SCS 110 (JM110, end Al) was used for amplification of progeny phage post-electroporation, and NR9050 was the strain of choice for double agar plating with X-GAL for blue-clear detection of plaques. The E. coli strains used to replicate lesion-containing phage were HK81 (as AB1157, but nalA) and HK82 (as AB1157, but nalA alkB22; AlkB-deficient).
(§2) Lesion-containing genomes were mixed with the competitor genome (80:20 molar ratio) and electroporated in triplicate into 100 μl competent cells using a 2 mm-gap cuvette and a BTX electroporator set to 2.5 kV and 125 a Typical pulse lengths were 4.9 msec. The cells were immediately transferred to 10 ml LB and an aliquot was immediately plated using the agar overlay method to verify that a minimum of 10^5 independent initial electroporation events occurred in 10 ml of culture. Incubation for 6 h at 37° C. with aeration generated the progeny phage, which were then reamplified in SCS 110 cells (10 μl overnight culture and 100 μl of the 6 h supernatant in 10 ml LB) to dilute out the residual genomic DNA used for electroporation. Single-stranded M13 progeny phage DNA was isolated from 1.4 ml of supernatant using a Q1Aprep Spin M13 Kit with final DNA suspension in 100 μl elution buffer. CRAB forward and reverse primers were used to amplify the region of interest from 15 μl per Q1Aprep elution sample in a total volume of 25 μl containing 50 pmol of each primer, 1×Pfu Turbo buffer, 1.25 U Pfu Turbo DNA polymerase and […] of each dNTP. The PCR program used 30 cycles of 67° C. (1 min) annealing and 72° C. (1 min) extensions. After purification using QIAQUICK PCR purification columns, 4 μl of the PCR product were treated with BbsI (1.5 U) and SAP (0.3 U) in a total volume of 6 μl by incubating at 37° C. for 4 h. After phosphatase inactivation, (80° C. for 5 min), the 5′ ends were then radiolabeled using [γ-^32P]-ATP (1.66 pmol, 10 μCi/μl, 6000 Ci/mmol), cold ATP (16 pmol) and 5 U of OPTIKINASE at 37° C. for 30 min. Following the kinase inactivation at 65° C. for 20 min, the labeled product was then trimmed by HaeIII (10 U in a final volume of 10 μl) at 37° C. for 2 h, and diluted 1:1 in formamide loading dye. PAGE separation on a 20% denaturing gel, run for about 3.5 h at 550 V, until the xylene cyanol dye migrated 10.5 cm, yielded two bands for each sample: an 18-mer originating from the lesion-containing genome and a 21-mer originating from the competitor genome. The gels were visualized on a phosphorimager (Typhoon 7000, GE Healthcare Life Sciences); the band intensities were quantified using IMAGEJ software (National Institutes of Health). Lesion bypass was calculated as the percentage ratio of the intensity of the 18-mer band (lesion signal) to the intensity of the 21-mer band (competitor signal).
(§3) The REAP assay methodology is identical to the CRAB assay except for the PCR primers, which amplified only the progeny DNA originating from the lesion-carrying genomes. Following electrophoresis, the 18-mer bands were excised from the gel, crushed and extracted with 200 μl water. After desalting with SEPHADEX G-50 Fine resin spin columns, the samples were lyophilized to dryness, resuspended in 5 μl containing 1 μg P1 Nuclease in 30 mM sodium acetate (pH 5.3) and 10 mM zinc chloride, and incubated at 50° C. for 1 h. One μl of each sample was then spotted onto PEI-TLC plates and separated using 200 ml of a saturated solution of (NH4)2HPO4 adjusted to pH 5.8. After 24 h of development, the TLC plates were air-dried and quantified using phosphorimagery. […]

[3] = tested on: HK81 (AlkB+) E. coli cells; assay: REAP mutagenesis assay, HK81 cells; format: cell-based
Description: as §1, §2, §3

[4] = tested on: HK82 (AlkB−) E. coli cells; format: cell-based
[5] = tested on: HK82SOS; assay: CRAB lesion bypass assay, HK82SOS cells; format: cell-based, E. coli; conditions: percentage relative to unmodified control genome
Description: as §1
as §2, with “After purification using QIAQUICK PCR purification columns, 4 μl of the PCR product were treated with BbsI (1.5 U) and SAP (0.3 U) in a total volume of 6 μl by incubating at 37° C. for 4 h. After phosphatase inactivation, (80° C. for 5 min), the 5′ ends were then radiolabeled using [γ-^32P]-ATP (1.66 pmol, 10 μCi/μl, 6000 Ci/mmol), cold ATP (16 pmol) and 5 U of OPTIKINASE at 37° C. for 30 min. Following the kinase inactivation at 65° C. for 20 min, the labeled product was then trimmed by HaeIII (10 U in a final volume of 10 μl) at 37° C. for 2 h, and diluted 1:1 in formamide loading dye. PAGE separation on a 20% denaturing gel, run for about 3.5 h at 550 V, until the xylene cyanol dye migrated 10.5 cm, yielded two bands for each sample: an 18-mer originating from the lesion-containing genome and a 21-mer originating from the competitor genome.” left out, “signal). […]” for “signal).”

[6] = tested on: HK82 (AlkB−) E. coli cells; format: cell-based; remark: listed apart in the source
[7] = tested on: HK81 (AlkB+) E. coli cells; format: cell-based
Description: (A) A 16mer oligonucleotide containing KP1212 (SEQ ID NO: 1) (or controls) at a specific site was chemically synthesized and ligated into the genome of an M13 bacteriophage. (B) The KP1212-containing M13 genomes were replicated within E. coli cells. Progeny were analyzed to characterize the amount and the type of nucleic acid base placed opposite the lesion during replication. The relative reduction in lesion vs. non-lesion competitor progeny formation was used as an estimate of the extent to which KP1212 and m3C inhibited DNA replication. (C) The KP1212-containing M13 genomes were used as templates for in vitro polymerase extension assays, carried out at 72° C., using the high-fidelity DNA polymerase PfuTurbo. (D) Bypass efficiency (CRAB assay) of KP1212, m3C, C in HK81 (AlkB^+) and HK82 (AlkB^−) E. coli cells. m3C and undamaged C were used as controls. Genomes were made and normalized to one another before being combined with a competitor genome. Each mixture was transformed into the corresponding cell strain in triplicate, and bypass efficiency was calculated by using the undamaged C genome as 100% bypass, with error bars representing one standard deviation. (E) Mutagenesis (REAP assay) of KP1212, m3C, and C in HK82 (AlkB^−) E. coli cells. m3C, undamaged C, and an approximately equimolar mixture of genomes carrying unmodified G/A/T/C bases at the site of inquiry (denoted as GATC) were used as controls. Genomes containing the lesions of interest were transfected into E. coli in triplicate.
as §1

SMILES	tautomerism by Variable Temperature NMR [1]	Mutagenicity, Average % A [2]	Mutagenicity, Average % C [2]	Mutagenicity, Average % G [2]	Mutagenicity, Average % T [2]	Mutagenicity, Average % C [3]	Mutagenicity, Average % A ([3]; (c) HK81)	Mutagenicity, Average % G ([3]; (c) HK81)	Mutagenicity, Average % T ([3]; (c) HK81)	replication block / toxicity to replication ([4]; E. coli (FIG. 18D), for m3C cells that lack AlkB)	Polymerase bypass efficiency, Avg. ([4]; HK82, percentage relative to unmodified control genome, triplicate)	Polymerase bypass efficiency, Avg. [5]	Mutagenicity, Average % A ([6]; (a) HK82)	Mutagenicity, Average % C ([6]; (a) HK82)	Mutagenicity, Average % G ([6]; (a) HK82)	Mutagenicity, Average % T ([6]; (a) HK82)	base pairing / mutagenicity (in words) ([6]; FIGS. 18C, 18E, m3C in repair deficient cells)	Polymerase bypass efficiency, Avg. ([7]; HK81, percentage relative to unmodified control genome)	toxicity to replication ([7]; cells that expressed the repair enzyme AlkB)
Nc1ncn([C@H]2C[C@H](O)[C@@H](CO)O2)c(=O)n1 [5-Aza-dC, 5-aza-2′-deoxycytidine]	does not show multiple tautomerism; also recorded: single tautomerism																		
NC1=NC(=O)N(C2CC(O)C(CO)O2)CC1 (centres unmarked) [DHdC]	shows multiple tautomerism; also recorded: multiple tautomers																		
Cn1c(N)ccnc1=O [m3C, 3-methylcytosine]		33.6%	5.7%	3.2%	57.5%	100.0%	0.0%	0.0%	0.0%	very toxic to replication	14%	45%	30.6%	13.2%	1.3%	54.9%	mispair with both A and T	113%	toxicity was abolished
